Results from PubChem BioAssay AID248 (DTP/NCI, 2004).
Toxic doses and inconclusive results are not listed. Cut-off read from the data, not from the text of the source: active = T/C of 150% or more; inactive = T/C below 125%.

Tested on: L1210 leukemia ip in BDF1 mice, survival T/C
Assay: NCI In Vivo Anticancer Drug Screen. Data for tumor model L1210 Leukemia (intraperitoneal) in B6D2F1 (BDF1) mice
Conditions: endpoint: mean survival time, higher = longer survival
Method in brief: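 Tumor cells were implanted, animals were treated, and survival was followed. The result divides the treated measurement by the vehicle-control measurement.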

[1] = dose: 5.0 mg/kg/injection, schedule: Q01DX001 (ip), vehicle: saline
[2] = dose: 10.0 mg/kg/injection, schedule: Q01DX001 (ip), vehicle: saline
[3] = dose: 20.0 mg/kg/injection, schedule: Q01DX001 (ip), vehicle: saline
[4] = dose: 40.0 mg/kg/injection, schedule: Q01DX001 (ip), vehicle: saline
[5] = dose: 50.0 mg/kg/injection, schedule: Q01DX009 (ip), vehicle: saline with Tween-80
[6] = dose: 100.0 mg/kg/injection, schedule: Q01DX009 (ip), vehicle: saline with Tween-80
[7] = dose: 100.0 mg/kg/injection, schedule: Q01DX009 (ip), vehicle: Klucel (hydroxypropylcellulose) (HPC)
[8] = dose: 200.0 mg/kg/injection, schedule: Q01DX009 (ip), vehicle: Klucel (hydroxypropylcellulose) (HPC)
[9] = dose: 400.0 mg/kg/injection, schedule: Q01DX009 (ip), vehicle: Klucel (hydroxypropylcellulose) (HPC)
[10] = dose: 100.0 mg/kg/injection, schedule: Q04DX003 (ip), vehicle: Klucel (hydroxypropylcellulose) (HPC)
[11] = dose: 200.0 mg/kg/injection, schedule: Q01DX009 (ip), vehicle: saline with Tween-80
[12] = dose: 200.0 mg/kg/injection, schedule: Q04DX003 (ip), vehicle: Klucel (hydroxypropylcellulose) (HPC)
[13] = dose: 400.0 mg/kg/injection, schedule: Q01DX009 (ip), vehicle: saline with Tween-80
[14] = dose: 400.0 mg/kg/injection, schedule: Q04DX003 (ip), vehicle: Klucel (hydroxypropylcellulose) (HPC)
[15] = dose: 100.0 mg/kg/injection, schedule: Q04DX003 (ip), vehicle: saline with Tween-80

Measured: T/C

COC(=O)/C=C(\C(=O)OC)n1ccccc1=O
inactive: [1] 101 % of control | [2] 98 % of control | [3] 95 % of control | [4] 102 % of control

CCC(C)(C)c1ccc(O)cc1
inactive: [5] 102 % of control | [6] 100 % of control

N#Cc1c(O)ccc(O)c1C#N
inactive: [7] 87 % of control | dose: 100.0 mg/kg/injection, schedule: Q04DX002 (ip), vehicle: Klucel (hydroxypropylcellulose) (HPC) 90 % of control | [8] 87 % of control | dose: 200.0 mg/kg/injection, schedule: Q04DX002 (ip), vehicle: Klucel (hydroxypropylcellulose) (HPC) 93 % of control | [9] 94 % of control | dose: 400.0 mg/kg/injection, schedule: Q04DX002 (ip), vehicle: Klucel (hydroxypropylcellulose) (HPC) 96 % of control

O=[N+]([O-])/C=C\C(Cl)(Cl)Cl
inactive: dose: 6.25 mg/kg/injection, schedule: Q01DX009 (ip), vehicle: saline with Tween-80 96 % of control | dose: 12.5 mg/kg/injection, schedule: Q01DX009 (ip), vehicle: saline with Tween-80 87 % of control

CCCCCCCCCCCn1cnc2c(N)ncnc21
inactive: dose: 12.5 mg/kg/injection, schedule: Q01DX005 (ip), vehicle: other 93 % of control | dose: 25.0 mg/kg/injection, schedule: Q01DX005 (ip), vehicle: other 103 % of control | dose: 50.0 mg/kg/injection, schedule: Q01DX005 (ip), vehicle: other 92 % of control | dose: 100.0 mg/kg/injection, schedule: Q01DX005 (ip), vehicle: other 103 % of control | dose: 200.0 mg/kg/injection, schedule: Q01DX005 (ip), vehicle: other 104 % of control

Cc1[nH]c(=S)[nH]c(=O)c1CCC(=O)O
inactive: [6] 96 % of control | [10] 94 % of control | [11] 98 % of control | [12] 102 % of control | [13] 98 % of control | [14] 102 % of control

CCN(CC)CCOC(=O)N1c2ccccc2Sc2ccccc21
inactive: dose: 25.0 mg/kg/injection, schedule: Q01DX009 (ip), vehicle: saline with Tween-80 100 % of control | dose: 50.0 mg/kg/injection, schedule: Q01DX009 (ip), vehicle: Klucel (hydroxypropylcellulose) (HPC) 102 % of control | [5] 103 % of control | [7] 102 % of control | [6] 103 % of control | [10] 98 % of control | [15] 93 % of control | [12] 93 % of control

CC1(C)N=C(N)N=C(N)N1c1cccc(CCCCc2cccc(NC(=O)CBr)c2)c1
inactive: [1] 102 % of control | [2] 98 % of control | [3] 98 % of control | [4] 112 % of control

NNC(=O)C(CSC(c1ccccc1)c1ccccc1)NC(=O)C(CSC(c1ccccc1)(c1ccccc1)c1ccccc1)NC(=O)OCc1ccccc1 (centres undefined)
inactive: [7] 97 % of control | [8] 97 % of control | [9] 94 % of control

O=C(O)c1cccc(Sc2ccccc2)c1
inactive: dose: 100.0 mg/kg/injection, schedule: Q01DX001 (ip), vehicle: carboxymethylcellulose (CMC) 100 % of control | dose: 200.0 mg/kg/injection, schedule: Q01DX001 (ip), vehicle: carboxymethylcellulose (CMC) 90 % of control | dose: 400.0 mg/kg/injection, schedule: Q01DX001 (ip), vehicle: carboxymethylcellulose (CMC) 102 % of control

OCCNc1ccc(C2=NCCO2)cc1
inactive: [6] 106 % of control | [11] 97 % of control | [13] 91 % of control

C#CC1(O)CCCCC1
inactive: [7] 108 % of control | [10] 94 % of control | [8] 97 % of control | [12] 100 % of control | [9] 97 % of control | [14] 96 % of control

CCC1(NS(=O)(=O)c2ccc(NC(C)=O)cc2)C(=O)N(C)C(=O)N(C)C1=O
inactive: dose: 100.0 mg/kg/injection, schedule: Q01DX001 (ip), vehicle: saline 95 % of control | dose: 200.0 mg/kg/injection, schedule: Q01DX001 (ip), vehicle: saline 91 % of control | dose: 400.0 mg/kg/injection, schedule: Q01DX001 (ip), vehicle: saline 91 % of control

COc1cc([N+](=O)[O-])ccc1NC(=O)Nc1ccc(Cl)cc1[N+](=O)[O-]
inactive: [7] 100 % of control | [8] 95 % of control | [9] 90 % of control

CCOC(=O)c1ccc(N2C(=O)c3cccc4cccc(c34)C2=O)cc1
inactive: [6] 95 % of control | [15] 103 % of control | [11] 89 % of control | dose: 200.0 mg/kg/injection, schedule: Q04DX003 (ip), vehicle: saline with Tween-80 98 % of control | [13] 89 % of control | dose: 400.0 mg/kg/injection, schedule: Q04DX003 (ip), vehicle: saline with Tween-80 95 % of control

c1ccc([P+](c2ccccc2)(c2ccccc2)C2OCCO2)cc1
inactive: dose: 25.0 mg/kg/injection, schedule: Q04DX003 (ip), vehicle: saline with Tween-80 95 % of control | dose: 50.0 mg/kg/injection, schedule: Q04DX003 (ip), vehicle: saline with Tween-80 103 % of control

CC(=O)C(CCS(C)(=O)=O)(CCS(C)(=O)=O)c1ccccc1
inactive: [10] 112 % of control | [12] 108 % of control | [14] 100 % of control
